Source: ChEMBL document CHEMBL4229568, “Discovery of natural flavonoids as activators of Nrf2-mediated defense system: Structure-activity relationship and inhibition of intracellular oxidative insults” (Bioorg Med Chem, 2018)
Activity calls are given as the source filed them. No cut-off for these calls is given here.

What was measured:
[1] = biological target: T1, Nuclear factor erythroid 2-related factor 2 (Mus musculus) (UniProt Q60795); assay: Activation of Nrf2 in mouse Heap1c1c7 cells assessed as induction of NAD(P)H:quinone reductase activity at 6.25 uM pretreated for 1 hr followed by co-treatment with p38 MAPK inhibitor SB203580 for 24 hrs; type: cell-based
T1 sequence (whole entry): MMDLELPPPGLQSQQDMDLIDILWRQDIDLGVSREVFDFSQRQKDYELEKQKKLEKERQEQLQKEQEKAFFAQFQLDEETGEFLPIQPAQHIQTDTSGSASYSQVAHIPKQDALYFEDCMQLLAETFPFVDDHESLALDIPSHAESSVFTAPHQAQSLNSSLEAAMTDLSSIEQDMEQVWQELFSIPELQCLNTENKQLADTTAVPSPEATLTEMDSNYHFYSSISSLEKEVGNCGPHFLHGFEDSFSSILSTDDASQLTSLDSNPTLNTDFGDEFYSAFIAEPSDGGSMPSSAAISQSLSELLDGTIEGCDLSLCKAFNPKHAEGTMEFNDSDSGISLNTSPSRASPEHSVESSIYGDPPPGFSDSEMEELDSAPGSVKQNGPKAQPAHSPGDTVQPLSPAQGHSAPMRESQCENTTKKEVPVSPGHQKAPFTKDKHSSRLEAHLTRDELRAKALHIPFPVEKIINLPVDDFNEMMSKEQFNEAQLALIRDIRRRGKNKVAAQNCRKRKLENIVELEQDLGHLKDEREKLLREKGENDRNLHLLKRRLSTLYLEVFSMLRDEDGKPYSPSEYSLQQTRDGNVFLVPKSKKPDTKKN

[2] = biological target: T2, Nuclear factor erythroid 2-related factor 2 (Homo sapiens) (UniProt Q16236); assay: Activation of Nrf2 in human BEAS2B cells assessed as upregulation of Nrf2 protein expression at 3.12 to 25 uM after 12 hrs by immunoblot analysis; type: cell-based
T2 sequence (whole entry): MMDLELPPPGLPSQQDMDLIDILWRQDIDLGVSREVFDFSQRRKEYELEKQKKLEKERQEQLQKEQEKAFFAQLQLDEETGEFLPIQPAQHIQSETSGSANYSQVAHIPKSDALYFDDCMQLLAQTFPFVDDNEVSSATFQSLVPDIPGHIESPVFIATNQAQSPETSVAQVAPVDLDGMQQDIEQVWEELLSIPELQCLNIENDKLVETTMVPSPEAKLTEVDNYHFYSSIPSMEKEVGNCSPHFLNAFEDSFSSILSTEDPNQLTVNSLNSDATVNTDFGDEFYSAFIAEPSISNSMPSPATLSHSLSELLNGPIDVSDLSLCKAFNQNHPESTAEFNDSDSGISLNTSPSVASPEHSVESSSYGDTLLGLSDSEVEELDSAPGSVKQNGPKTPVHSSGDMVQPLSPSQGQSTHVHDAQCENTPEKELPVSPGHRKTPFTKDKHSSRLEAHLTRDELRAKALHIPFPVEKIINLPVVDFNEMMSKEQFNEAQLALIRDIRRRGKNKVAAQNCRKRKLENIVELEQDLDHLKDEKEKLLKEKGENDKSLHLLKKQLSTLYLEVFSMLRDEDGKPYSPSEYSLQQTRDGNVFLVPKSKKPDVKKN

[3] = biological target: T2, Nuclear factor erythroid 2-related factor 2 (Homo sapiens); assay: Activation of Nrf2 in human BEAS2B cells assessed as suppression of As(+3)-induced overproduction of reactive oxygen species at 6.25 uM pretreated for 8 hrs followed by As(+3) challenge and measured after 10 hrs; type: cell-based
[4] = biological target: T2, Nuclear factor erythroid 2-related factor 2 (Homo sapiens); assay: Activation of Nrf2 in human BEAS2B cells assessed as upregulation of gamma-GCS protein expression at 50 to 100 uM after 18 hrs by immunoblot analysis; type: cell-based
[5] = biological target: T2, Nuclear factor erythroid 2-related factor 2 (Homo sapiens); assay: Activation of Nrf2 in human BEAS2B cells assessed as upregulation of gamma-GCS protein expression at 0.31 to 20 uM after 18 hrs by immunoblot analysis; type: cell-based
[6] = biological target: T2, Nuclear factor erythroid 2-related factor 2 (Homo sapiens); assay: Activation of Nrf2 in human BEAS2B cells assessed as upregulation of Nrf2 protein expression at 6.25 uM after 48 hrs by immunoblot analysis; type: cell-based
[7] = biological target: T2, Nuclear factor erythroid 2-related factor 2 (Homo sapiens); assay: Activation of Nrf2 in human BEAS2B cells assessed as upregulation of GSH levels after 24 hrs; type: cell-based
[8] = test system: BEAS-2B; assay: Cytoprotective activity in human BEAS2B cells assessed as decrease in As(+3)-induced cell apoptosis at 6.25 uM preincubated for 8 hrs followed by As(+3) challenge and measured after 24 hrs by annexin V-FITC/propidium iodide staining-based flow cytometric method; type: functional
[9] = biological target: T2, Nuclear factor erythroid 2-related factor 2 (Homo sapiens); assay: Activation of Nrf2 in human BEAS2B cells assessed as upregulation of Nrf2 protein expression at 6.25 uM after 8 to 24 hrs by immunoblot analysis; type: cell-based
[10] = biological target: T2, Nuclear factor erythroid 2-related factor 2 (Homo sapiens); assay: Activation of Nrf2 in human BEAS2B cells assessed as upregulation of Nrf2 protein expression at 50 to 100 uM after 18 hrs by immunoblot analysis; type: cell-based
[11] = biological target: T2, Nuclear factor erythroid 2-related factor 2 (Homo sapiens); assay: Stabilization of Nrf2 in human BEAS2B cells assessed as protein half life at 6.25 uM preincubated for 8 hrs followed by CHX addition and measured over 10 to 40 mins by immunoblot analysis (reference value: 14.7 min); type: cell-based
[12] = biological target: T1, Nuclear factor erythroid 2-related factor 2 (Mus musculus); assay: Activation of Nrf2 in mouse Heap1c1c7 cells assessed as induction of NAD(P)H:quinone reductase activity at 6.25 uM pretreated for 1 hr followed by co-treatment with PKC inhibitor Ro-31-8220 for 24 hrs; type: cell-based
[13] = biological target: T2, Nuclear factor erythroid 2-related factor 2 (Homo sapiens); assay: Induction of Nrf2 translocation from cytoplasm to nucleus in human BEAS2B cells at 6.25 uM after 18 hrs by DAPI staining-based immunofluorescence analysis; type: cell-based
[14] = biological target: T2, Nuclear factor erythroid 2-related factor 2 (Homo sapiens); assay: Activation of Nrf2 in human BEAS2B cells assessed as upregulation of Nrf2 protein expression at 6.25 uM pretreated for 1 hr followed by co-treatment with PKC inhibitor Go6983 for 18 hrs by immunoblot analysis; type: cell-based
[15] = test system: BEAS-2B; assay: Cytotoxicity against human BEAS2B cells assessed as decrease in cell viability at 6.25 after 24 hrs by MTT assay; type: cell-based
[16] = biological target: T2, Nuclear factor erythroid 2-related factor 2 (Homo sapiens); assay: Inhibition of Nrf2 (unknown origin) ubiquitylation transfected in human BEAS2B cells at 6.25 uM after 6 hrs by immunoblot analysis; type: cell-based
[17] = test system: MDA-MB-231; assay: Cytotoxicity against human MDA-MB-231 cells assessed as decrease in cell viability at 3.12 to 100 uM after 24 hrs by MTT assay; type: cell-based; settings: mda-mb-231, 24 h

COc1ccc(-c2coc3cc(OC)cc(O)c3c2=O)cc1 [4',7-DIMETHOXY-5-HYDROXYGENISTEIN]
Activity [1]: inactive | Activity [2]: Active | Activity [3]: Active | Activity [4]: inactive | Activity [5]: Dose-dependent effect | Activity [6]: inactive | Activity [7]: Dose-dependent effect | Activity [8]: Active | Activity [9]: Active | Activity [10]: inactive | T1/2 [11]: 27.6 min | Activity [12]: inactive | Activity [13]: Active | Activity [14]: inactive | Activity [15]: Non-Toxic | inhibition [16]: Active | Activity [17]: Non-Toxic
